Experimental data reported in US20250171437A1 (Agios Pharmaceuticals,Inc., priority 2022, published 2025).

Molecular target: T1, human PAH with the R408W mutation (A375 R408W cells) (Homo sapiens, UniProt P00439, R408W)
T1 construct: expressed in transfected cells
T1 sequence (P00439 1-452 R408W): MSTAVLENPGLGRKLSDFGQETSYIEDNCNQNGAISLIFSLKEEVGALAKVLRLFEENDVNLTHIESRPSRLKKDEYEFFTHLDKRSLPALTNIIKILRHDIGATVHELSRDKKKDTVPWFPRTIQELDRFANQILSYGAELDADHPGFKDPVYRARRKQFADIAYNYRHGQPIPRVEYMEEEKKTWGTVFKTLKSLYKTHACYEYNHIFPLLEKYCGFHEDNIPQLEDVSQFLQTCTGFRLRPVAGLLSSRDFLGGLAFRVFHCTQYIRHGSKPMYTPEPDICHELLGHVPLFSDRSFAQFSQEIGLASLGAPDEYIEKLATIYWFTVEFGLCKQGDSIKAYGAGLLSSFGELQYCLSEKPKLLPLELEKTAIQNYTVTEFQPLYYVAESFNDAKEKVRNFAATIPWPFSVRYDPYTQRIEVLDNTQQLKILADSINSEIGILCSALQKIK
Assay: Cell Based Phenylalanine Flux Assay
Conditions: A375 R408W cells; 24 hrs with compound, then 20 μM sepiapterin and 800 μM 13C9,15N-Phenylalanine for 4 hours; 13C-Tyrosine by LC-MS; average where tested multiple times
In short: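 AC50 is derived from LC-MS of 13C-tyrosine in the media after a 4 h pulse of 800 μM 13C9,15N-phenylalanine plus 20 μM sepiapterin. The A375 R408W PAH cells had received duplicate 10-point, 2-fold compound dilutions (0.5% DMSO) for 24 h beforehand.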

Compound | AC50 [nM]
O=C(c1ocnc1C(F)(F)F)N1CCc2[nH]cnc2[C@@H]1c1nc2cc(Br)ccc2o1 [Example 148, (R)-(4-(5-bromobenzo[d]oxazol-2-yl)-6,7-dihydro-1H-imidazo[4,5-c]pyridin-5(4H)-yl)(4-(trifluoromethyl)oxazol-5-yl)methanone] | ≤ 500
O=C(c1ocnc1C(F)F)N1CCc2[nH]cnc2[C@@H]1c1nc2cc(Br)ccc2o1 [Example 150, (R)-(4-(5-bromobenzo[d]oxazol-2-yl)-6,7-dihydro-1H-imidazo[4,5-c]pyridin-5(4H)-yl)(4-(difluoromethyl)oxazol-5-yl)methanone] | ≤ 500
C[C@@H](O)c1nc(C(F)F)c(C(=O)N2CCc3[nH]cnc3[C@H]2c2nc3cc(F)ccc3o2)o1 [Example 151, (4-(difluoromethyl)-2-((R)-1-hydroxyethyl)oxazol-5-yl)((S)-4-(5-fluorobenzo[d]oxazol-2-yl)-6,7-dihydro-1H-imidazo[4,5-c]pyridin-5(4H)-yl)methanone] | ≤ 500
CC(F)(F)c1ncoc1C(=O)N1CCc2[nH]cnc2[C@H]1c1nc2cc(F)ccc2o1 [Example 153, (S)-(4-(1,1-difluoroethyl)oxazol-5-yl)(4-(5-fluorobenzo[d]oxazol-2-yl)-6,7-dihydro-1H-imidazo[4,5-c]pyridin-5(4H)-yl)methanone] | 500 to 1000
[2H]C([2H])([2H])OCc1nc(C(F)F)c(C(=O)N2CCc3[nH]cnc3[C@H]2c2nc3cc(F)ccc3o2)o1 [Example 155, (S)-(4-(difluoromethyl)-2-((methoxy-d3)methyl)oxazol-5-yl)(4-(5-fluorobenzo[d]oxazol-2-yl)-1,4,6,7-tetrahydro-5H-imidazo[4,5-c]pyridin-5-yl)methanone] | ≤ 500
[2H]C([2H])([2H])OCc1nc(C(F)F)c(C(=O)N2CCc3[nH]cnc3[C@@H]2c2nc3cc(F)ccc3o2)o1 [Example 156, (R)-(4-(difluoromethyl)-2-((methoxy-d3)methyl)oxazol-5-yl)(4-(5-fluorobenzo[d]oxazol-2-yl)-1,4,6,7-tetrahydro-5H-imidazo[4,5-c]pyridin-5-yl)methanone] | 1000 to 5000
O=C(c1ocnc1C(F)(F)F)N1CCc2[nH]cnc2[C@@H]1c1nc2ccc(F)cc2o1 [Example 162, (R)-(4-(6-fluorobenzo[d]oxazol-2-yl)-6,7-dihydro-1H-imidazo[4,5-c]pyridin-5(4H)-yl)(4-(trifluoromethyl)oxazol-5-yl)methanone] | 1000 to 5000
O=C(c1ocnc1C(F)F)N1CCc2[nH]cnc2[C@H]1c1nc2ccc(F)cc2o1 [Example 163, (S)-(4-(difluoromethyl)oxazol-5-yl)(4-(6-fluorobenzo[d]oxazol-2-yl)-6,7-dihydro-1H-imidazo[4,5-c]pyridin-5(4H)-yl)methanone] | ≤ 500
O=C(c1ocnc1C(F)F)N1CCc2[nH]cnc2[C@@H]1c1nc2ccc(F)cc2o1 [Example 164, (R)-(4-(difluoromethyl)oxazol-5-yl)(4-(6-fluorobenzo[d]oxazol-2-yl)-6,7-dihydro-1H-imidazo[4,5-c]pyridin-5(4H)-yl)methanone] | 1000 to 5000
O=C(c1ocnc1C(F)(F)F)N1CCc2[nH]cnc2[C@H]1c1nc2c(F)cccc2o1 [Example 167, (S)-(4-(4-fluorobenzo[d]oxazol-2-yl)-6,7-dihydro-1H-imidazo[4,5-c]pyridin-5(4H)-yl)(4-(trifluoromethyl)oxazol-5-yl)methanone] | ≤ 500
O=C(c1ocnc1C(F)F)N1CCc2[nH]cnc2[C@H]1c1nc2c(F)cccc2o1 [Example 169, (S)-(4-(difluoromethyl)oxazol-5-yl)(4-(4-fluorobenzo[d]oxazol-2-yl)-6,7-dihydro-1H-imidazo[4,5-c]pyridin-5(4H)-yl)methanone] | ≤ 500
O=C(c1ocnc1C(F)F)N1CCc2[nH]cnc2[C@@H]1c1nc2c(F)cccc2o1 [Example 170, (R)-(4-(difluoromethyl)oxazol-5-yl)(4-(4-fluorobenzo[d]oxazol-2-yl)-6,7-dihydro-1H-imidazo[4,5-c]pyridin-5(4H)-yl)methanone] | 500 to 1000
O=C(c1ocnc1C(F)(F)F)N1CCc2[nH]cnc2[C@@H]1c1nc2cccc(F)c2o1 [Example 172, (R)-(4-(7-fluorobenzo[d]oxazol-2-yl)-6,7-dihydro-1H-imidazo[4,5-c]pyridin-5(4H)-yl)(4-(trifluoromethyl)oxazol-5-yl)methanone] | ≤ 500
O=C(c1ocnc1C(F)F)N1CCc2[nH]cnc2[C@H]1c1nc2cccc(F)c2o1 [Example 173, (S)-(4-(difluoromethyl)oxazol-5-yl)(4-(7-fluorobenzo[d]oxazol-2-yl)-6,7-dihydro-1H-imidazo[4,5-c]pyridin-5(4H)-yl)methanone] | ≤ 500

Further lines, results first:

AC50 [nM] | Compound
≤ 500 | O=C(c1ocnc1C(F)F)N1CCc2[nH]cnc2[C@H]1c1nc2cc(Br)ccc2o1 [Example 149, (S)-(4-(5-bromobenzo[d]oxazol-2-yl)-6,7-dihydro-1H-imidazo[4,5-c]pyridin-5(4H)-yl)(4-(difluoromethyl)oxazol-5-yl)methanone]
1000 to 5000 | C[C@@H](O)c1nc(C(F)F)c(C(=O)N2CCc3[nH]cnc3[C@@H]2c2nc3cc(F)ccc3o2)o1 [Example 152, (4-(difluoromethyl)-2-((R)-1-hydroxyethyl)oxazol-5-yl)((R)-4-(5-fluorobenzo[d]oxazol-2-yl)-6,7-dihydro-1H-imidazo[4,5-c]pyridin-5(4H)-yl)methanone]
1000 to 5000 | CC(F)(F)c1ncoc1C(=O)N1CCc2[nH]cnc2[C@@H]1c1nc2cc(F)ccc2o1 [Example 154, (R)-(4-(1,1-difluoroethyl)oxazol-5-yl)(4-(5-fluorobenzo[d]oxazol-2-yl)-6,7-dihydro-1H-imidazo[4,5-c]pyridin-5(4H)-yl)methanone]
500 to 1000 | C[C@H](O)c1nc(C(F)F)c(C(=O)N2CCc3[nH]cnc3[C@H]2c2nc3cc(F)ccc3o2)o1 [Example 157, (4-(difluoromethyl)-2-((S)-1-hydroxyethyl)oxazol-5-yl)((S)-4-(5-fluorobenzo[d]oxazol-2-yl)-6,7-dihydro-1H-imidazo[4,5-c]pyridin-5(4H)-yl)methanone]
1000 to 5000 | C[C@H](O)c1nc(C(F)F)c(C(=O)N2CCc3[nH]cnc3[C@@H]2c2nc3cc(F)ccc3o2)o1 [Example 158, (4-(difluoromethyl)-2-((S)-1-hydroxyethyl)oxazol-5-yl)((R)-4-(5-fluorobenzo[d]oxazol-2-yl)-6,7-dihydro-1H-imidazo[4,5-c]pyridin-5(4H)-yl)methanone]
≤ 500 | CC(C)(C#N)c1nc(C(F)F)c(C(=O)N2CCc3[nH]cnc3[C@H]2c2nc3cc(F)ccc3o2)o1 [Example 159, (S)-2-(4-(difluoromethyl)-5-(4-(5-fluorobenzo[d]oxazol-2-yl)-4,5,6,7-tetrahydro-1H-imidazo[4,5-c]pyridine-5-carbonyl)oxazol-2-yl)-2-methylpropanenitrile]
500 to 1000 | CC(C)(C#N)c1nc(C(F)F)c(C(=O)N2CCc3[nH]cnc3[C@@H]2c2nc3cc(F)ccc3o2)o1 [Example 160, (R)-2-(4-(difluoromethyl)-5-(4-(5-fluorobenzo[d]oxazol-2-yl)-4,5,6,7-tetrahydro-1H-imidazo[4,5-c]pyridine-5-carbonyl)oxazol-2-yl)-2-methylpropanenitrile]
≤ 500 | O=C(c1ocnc1C(F)(F)F)N1CCc2[nH]cnc2[C@H]1c1nc2ccc(F)cc2o1 [Example 161, (S)-(4-(6-fluorobenzo[d]oxazol-2-yl)-6,7-dihydro-1H-imidazo[4,5-c]pyridin-5(4H)-yl)(4-(trifluoromethyl)oxazol-5-yl)methanone]
≤ 500 | O=C(c1cnn2cc(Br)c(Cl)cc12)N1CCc2[nH]cnc2[C@H]1c1nc2cc(F)ccc2o1 [Example 165, (S)-(6-bromo-5-chloropyrazolo[1,5-a]pyridin-3-yl)(4-(5-fluorobenzo[d]oxazol-2-yl)-6,7-dihydro-1H-imidazo[4,5-c]pyridin-5(4H)-yl)methanone]
≥ 5000 | O=C(c1cnn2cc(Br)c(Cl)cc12)N1CCc2[nH]cnc2[C@@H]1c1nc2cc(F)ccc2o1 [Example 166, (R)-(6-bromo-5-chloropyrazolo[1,5-a]pyridin-3-yl)(4-(5-fluorobenzo[d]oxazol-2-yl)-6,7-dihydro-1H-imidazo[4,5-c]pyridin-5(4H)-yl)methanone]
1000 to 5000 | O=C(c1ocnc1C(F)(F)F)N1CCc2[nH]cnc2[C@@H]1c1nc2c(F)cccc2o1 [Example 168, (R)-(4-(4-fluorobenzo[d]oxazol-2-yl)-6,7-dihydro-1H-imidazo[4,5-c]pyridin-5(4H)-yl)(4-(trifluoromethyl)oxazol-5-yl)methanone]
≤ 500 | O=C(c1ocnc1C(F)(F)F)N1CCc2[nH]cnc2[C@H]1c1nc2cccc(F)c2o1 [Example 171, (S)-(4-(7-fluorobenzo[d]oxazol-2-yl)-6,7-dihydro-1H-imidazo[4,5-c]pyridin-5(4H)-yl)(4-(trifluoromethyl)oxazol-5-yl)methanone]
≤ 500 | O=C(c1ocnc1C(F)F)N1CCc2[nH]cnc2[C@@H]1c1nc2cccc(F)c2o1 [Example 174, (R)-(4-(difluoromethyl)oxazol-5-yl)(4-(7-fluorobenzo[d]oxazol-2-yl)-6,7-dihydro-1H-imidazo[4,5-c]pyridin-5(4H)-yl)methanone]
